Assay results taken from US6818215B2, “Antibodies to senescent cell-derived inhibiters of DNA synthesis” (priority 1991, dated 2004).

Columns and labels:
HeLa cells = experiment: Transient transfection of SDI-1, inhibition of DNA synthesis; format: cell-based, human
From the text: (§1) This provides further evidence that SDI-1 behaves like the inhibitor previously detected in senescent cells.

WI38 immortal cell line = experiment: as above; format: cell-based, human
From the text: as §1

[1] = system: neonatal foreskin cell line (CSC303); experiment: as above; format: cell-based, human
From the text: as §1

cdk2 protein = target: T1, cdk2 protein (Homo sapiens, UniProt P24941); experiment: Binding of in vitro translated SDI-1 deletion mutants to purified cdk2, anti-cdk2 immunoprecipitation; details: 45 μl translation product, 1 ug cdk2, 4° C.
T1 construct: host or cells: baculovirus expression system
Description: To determine whether the DNA synthesis inhibition caused by these mutants was occurring through inhibition of cdk kinases, the binding of in vitro translated deletion mutant proteins products with purified cdk2protein was examined. Thus, the various deletion mutants of SDI-1 were translated in reticulocyte lysates (Promega) using pBluescript based plasmids as transcription templates for the T7 RNA polymerase. For in vitro binding, 45 μl of the translation product was added to 500 μl binding buffer (50 mM Tris/HCl, pH 7.5, 120 mM NaCl, 2 mM EDTA, 0.1% NP-40, 1 mM NaF, 0.1 m.M sodium vanidate, 5 μg/ml leupeptin, 5 μg/ml soybean trypsin inhibitor, 5 μg/ml aprotinin) containing 1 ug cdk2 protein purified from a bacculovirus expression system. The mixture was gently rocked for 1 hour at 4° C. and then 7.5 μg anti-cdk2 rabbit polyclonal antibody was added. Mixing was continued for 1 hour at 4° C. The immunocomplex was absorbed by incubation with 40 μl protein G plus A beads for 2 hr. The matrices were then washed three times with 0.5 ml of binding buffer prior to electrophoresis and autoradiography.

[2] = system: B16 murine melanoma cell line; experiment: Lipofectamine liposome-mediated delivery of SDI-1 protein; format: cell-based
[3] = system: hamster dihydrofolate reductase (DHFR) promoter; experiment: CAT reporter transcription assay, DHFR-CAT; format: cell-based
Description: The effect of the human SDI-1 on transcription driven by two E2F-responsive promoters was determined. Proliferating A31 cells were transfected with an SDI-1 expression vector in which the SDI-1 cDNA was driven by the strong constitutive cytomegalovirus early promoter (CMV) together with a reporter vector in which the chloramphenicol acetyltransferase (CAT) gene was driven by either the hamster dihydrofolate reductase (DHFR) promoter or the human cdc2 promoter (cdc2-CAT). A31 cells are Balb/c murine 3T3 fibroblasts whose origin and growth properties have been described (Lu, K. et al., Molec. Cell. Biol. 9:3411-3417 (1989); Dimri, G. P et al., J. Biol. Chem. 269:16180-16186 (1994), herein incorporated by reference). Cells were transfected with 2 μg of expression vectors, reporters vectors (for transactivation) and the CMV-β-gal identification/normalization vector using Lipofectamine (Gibco-BRL), as described by Dimri, G. P et al. (J. Biol. Chem. 269:16180-16186 (1994), herein incorporated by reference), The vector backbone was added to the mixture as needed to equalize the amount of transfected DNA. Seventy-two hours later, the cells were lysed and assayed for chloramphenicol acetyl transferase (CAT) and β-galactosidase activity. Both DHFR and cdc2 were expressed by proliferating cells, largely due to E2F-mediated transcription that is dependent on E2F binding sites in the 5′ regulatory regions of these genes (Slansky, J. E. et al., Molec. Cell. Biol. 13:1610-1618 (1993); Dalton, S., EMBO J. 11:1797-1804 (1992)).
The SDI-1 expression vector, CMV-SDI-1, but not the control vector, suppressed CAT activity driven by either the DHFR or cdc2 promoter (Table 16). CMV-SDI-1 was maximally inhibitory at above 2 μg of DNA under the assay conditions used. CAT activity in Table 16 is reported in counts per minute, normalized to the β-galactosidase activity. At this concentration, CMV-SDI-1 inhibited the DHFR promoter, which contains two strong E2F binding sites (Slansky, J. E. et al., Molec. Cell. Biol. 13:1610-1618 (1993)), somewhat more strongly than the cdc2 promoter, which contains a single E2F binding site (Dalton, S., EMBO J. 11:1797-1804 (1992)) (50-70% inhibition vs 40-50% inhibition). This difference in sensitivity is consistent with the finding that the DHFR promoter is somewhat more sensitive than the cdc2 promoter to stimulation by E2F1, a component of E2F (Dimri, G. P et al., J. Biol. Chem. 269:16180-16186 (1994)). At the concentrations used here, CMV-SDI-1 inhibited DHFR-CAT and cdc2-CAT expression to approximately the same extent that it inhibited DNA replication.

[4] = system: E2F/p107/cdk/cyclin complexes; experiment: Effect of recombinant SDI-1 on DNA-protein complexes at an E2F binding site in nuclear extracts; format: biochemical; details: extracts from cells in late G1
From the text: E2F binding sites are occupied by protein complexes, whose composition—at least by in vitro analyses—depend on the cellular growth state and stage of the cell cycle (Chellappan, S. P. et al., Cell 65:1053-1061 (1991); Nevins, J. R., Science 258:424-429 (1992); Farnham, P. J. et al., Biochim. Biophys. Acta 1155:125-131 (1993)). To determine which if any of these complexes might be a target for SDI-1, the effect of recombinant SDI-1 protein on DNA-protein complexes that associate with an E2F binding site in vitro was determined
E2F-1 is induced a few hours prior to S phase (Shan, B. et al., Molec. Cell. Biol. 12:5620-5631 (1992); Slansky, J. E. et al., Molec. Cell. Biol. 13:1610-1618 (1993); Dimri, G. P et al., J. Biol. Chem. 269:16180-16186 (1994)) at about which time nuclear extracts from cells in mid to late G1 contain increased levels of free E2F, E2F in association with pRb, and E2F in association with p107, cdk2 and cyclin E (mid-late G1-early S). Of the complexes present in extracts from cells in late G1, only the E2F/p107/cdk/cyclin complexes were disrupted by recombinant SDI-1.

## SDI-1: senescent cell derived inhibitor of DNA synthesis, 164 amino acid protein, SEQ ID NO:2
HeLa cells
  inhibition (DNA synthesis): < 20%
WI38 immortal cell line
  inhibition (DNA synthesis): 40-50%
[1]
  inhibition (DNA synthesis): 40-50%
cdk2 protein
  binding to purified cdk2 protein: bound cdk2 protein efficiently
[2]; 48 hr
  3H-Tdr Uptake: 2134 ± 294
  Cell Number: 7820 ± 141
  Ratio of SDI-1 Treated to BSA Treated, 3H-Tdr Uptake: 0.34
  Ratio of SDI-1 Treated to BSA Treated, Cell No.: 0.29
[2]; 72 hours after liposome treatment
  detection of SDI-1 in cells: not detectable
[2]; 72 hr
  3H-Tdr Uptake: 8765 ± 533
  Cell Number: 23710 ± 1485
  Ratio of SDI-1 Treated to BSA Treated, 3H-Tdr Uptake: 0.3
  Ratio of SDI-1 Treated to BSA Treated, Cell No.: 0.28
[2]; after 3-4 hours
  fraction of cells with SDI-1 detected in the nuclei: ½
[2]; after 9 hours
  fraction of cells with SDI-1 detected in the nuclei: ⅓
[3]; SDI-1 0.2 μg, A31 cells
  % Activity: 97%
  % Inhibition: 4%
  Normalized CAT Activity: 9155 counts per minute
[3]; SDI-1 1.0 μg
  % Activity: 87%
  % Inhibition: 13%
  Normalized CAT Activity: 8196 counts per minute
[3]; SDI-1 2.0 μg
  % Activity: 28%
  % Inhibition: 72%
  Normalized CAT Activity: 2613 counts per minute
[3]; SDI-1 4.0 μg
  % Activity: 19%
  % Inhibition: 81%
  Normalized CAT Activity: 1757 counts per minute
[4]
  effect on E2F/p107/cdk/cyclin complexes: disrupted
